The record followed here is patent US7956053B2, “Inhibitors of tyrosine kinases” (Novartis AG, priority 2002, dated 2011).

The target in assay [1] is T1, c-Abl (Homo sapiens, UniProt P00519).
T1 construct: The His-tagged kinase domain of c-Abl is cloned and expressed in the baculovirus/Sf9 system; His; made in house; host or cells: baculovirus/Sf9
T1 sequence (P00519 242-493 limits assumed): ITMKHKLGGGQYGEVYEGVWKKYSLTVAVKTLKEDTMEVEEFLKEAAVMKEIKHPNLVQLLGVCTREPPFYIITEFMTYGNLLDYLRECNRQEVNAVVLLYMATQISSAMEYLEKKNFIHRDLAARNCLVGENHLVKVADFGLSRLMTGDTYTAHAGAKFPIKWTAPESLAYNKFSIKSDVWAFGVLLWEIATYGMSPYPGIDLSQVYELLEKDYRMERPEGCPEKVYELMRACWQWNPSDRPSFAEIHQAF
Nature of the assay: Test for activity against c-Abl protein tyrosine kinase (filter binding assay). The format is biochemical. The protocol: Test for activity against c-Abl protein tyrosine kinase. The test is conducted as a filter binding assay as follows: The His-tagged kinase domain of c-Abl is cloned and expressed in the baculovirus/Sf9 system as described by Bhat et al., J Biol. Chem. 272, 16170-5 (1997). A protein of 37 kD (c-Abl kinase) is purified by a two-step procedure over a Cobalt metal chelate column followed by an anion exchange column with a yield of 1-2 mg/L of Sf9 cells. The purity of the c-Abl kinase is >90% as judged by SDS-PAGE after Coomassie blue staining. The assay contains: c-Abl kinase (50 ng), 20 mM Tris.HCl, pH 7.5, 10 mM MgCl2, 10 μM Na3VO4, 1 mM DTT and 0.06 μCi/assay [γ^33 P]-ATP (5 μM ATP) using 30 μg/mL poly-Ala,Glu,Lys,Tyr-6:2:5:1 (Poly-AEKY, Sigma P1152) in the presence of 1% DMSO, total volume of 30 μL. Reactions are terminated by adding 10 μL of 250 mM EDTA, and 30 μL of the reaction mixture is transferred onto Immobilon-PVDF membrane (Millipore, Bedford, Mass., USA) previously soaked for 5 min with methanol, rinsed with water, then soaked for 5 min with 0.5% H3PO4 and mounted on vacuum manifold with disconnected vacuum source. After spotting all samples, vacuum is connected and each well rinsed with 200 μL 0.5% H3PO4. Membranes are removed and washed on a shaker with 0.5% H3PO4 (4 times) and once with ethanol. Membranes are counted after drying at ambient temperature, mounting in Packard TopCount 96-well frame, and addition of 10 μL/well of Microscint™ (Packard).
(§1) Enzymatic (c-Abl, KDR, Flt3) in vitro inhibition data are presented as % inhibition at 10 μM. The measurements are made as described above in the general description.

The target in assay [2] is KDR (Homo sapiens, UniProt P35968). Briefly: Enzymatic KDR in vitro inhibition. The format is biochemical. The protocol:
Test for activity against VEGF-receptor tyrosine kinase. The test is conducted using Flt-1 VEGF-receptor tyrosine kinase. The detailed procedure is as follows: 30 μL kinase solution (10 ng of the kinase domain of Flt-1, Shibuya et al., Oncogene 5, 519-24 [1990]) in 20 mM Tris.HCl pH 7.5, 3 mM manganese dichloride (MnCl2), 3 mM magnesium chloride (MgCl2), 10 μM sodium vanadate, 0.25 mg/mL polyethylenglycol (PEG) 20000, 1 mM dithiothreitol and 3 μg/μL poly(Glu,Tyr) 4:1 (Sigma, Buchs, Switzerland), 8 μM [^33P]-ATP (0.2 μCi), 1% DMSO, and 0 to 100 μM of the compound to be tested are incubated together for 10 minutes at room temperature. The reaction is then terminated by the addition of 10 μL 0.25 M ethylenediaminetetraacetate (EDTA) pH 7. Using a multichannel dispenser (LAB SYSTEMS, USA), an aliquot of 20 μL is applied to a PVDF (=polyvinyl difluoride) Immobilon P membrane (Millipore, Bedford, USA), through a Gibco-BRL microtiter filter manifold and connected to a vacuum. Following complete elimination of the liquid, the membrane is washed 4 times successively in a bath containing 0.5% phosphoric acid (H3PO4) and once with ethanol, incubated for 10 minutes each time while shaking, then mounted in a Hewlett Packard TopCount Manifold and the radioactivity measured after the addition of 10 μL Microscint® (β-scintillation counter liquid). IC50-values are determined by linear regression analysis of the percentages for the inhibition of each compound in at least four concentrations (as a rule 0.01, 0.1, 1.0 and 10 μmol).
as §1

A word on the inhibition: it is the percentage by which the read-out fell short of the control. Read a low inhibition as a response near the control.

KDR, sequence (P35968 20-1356): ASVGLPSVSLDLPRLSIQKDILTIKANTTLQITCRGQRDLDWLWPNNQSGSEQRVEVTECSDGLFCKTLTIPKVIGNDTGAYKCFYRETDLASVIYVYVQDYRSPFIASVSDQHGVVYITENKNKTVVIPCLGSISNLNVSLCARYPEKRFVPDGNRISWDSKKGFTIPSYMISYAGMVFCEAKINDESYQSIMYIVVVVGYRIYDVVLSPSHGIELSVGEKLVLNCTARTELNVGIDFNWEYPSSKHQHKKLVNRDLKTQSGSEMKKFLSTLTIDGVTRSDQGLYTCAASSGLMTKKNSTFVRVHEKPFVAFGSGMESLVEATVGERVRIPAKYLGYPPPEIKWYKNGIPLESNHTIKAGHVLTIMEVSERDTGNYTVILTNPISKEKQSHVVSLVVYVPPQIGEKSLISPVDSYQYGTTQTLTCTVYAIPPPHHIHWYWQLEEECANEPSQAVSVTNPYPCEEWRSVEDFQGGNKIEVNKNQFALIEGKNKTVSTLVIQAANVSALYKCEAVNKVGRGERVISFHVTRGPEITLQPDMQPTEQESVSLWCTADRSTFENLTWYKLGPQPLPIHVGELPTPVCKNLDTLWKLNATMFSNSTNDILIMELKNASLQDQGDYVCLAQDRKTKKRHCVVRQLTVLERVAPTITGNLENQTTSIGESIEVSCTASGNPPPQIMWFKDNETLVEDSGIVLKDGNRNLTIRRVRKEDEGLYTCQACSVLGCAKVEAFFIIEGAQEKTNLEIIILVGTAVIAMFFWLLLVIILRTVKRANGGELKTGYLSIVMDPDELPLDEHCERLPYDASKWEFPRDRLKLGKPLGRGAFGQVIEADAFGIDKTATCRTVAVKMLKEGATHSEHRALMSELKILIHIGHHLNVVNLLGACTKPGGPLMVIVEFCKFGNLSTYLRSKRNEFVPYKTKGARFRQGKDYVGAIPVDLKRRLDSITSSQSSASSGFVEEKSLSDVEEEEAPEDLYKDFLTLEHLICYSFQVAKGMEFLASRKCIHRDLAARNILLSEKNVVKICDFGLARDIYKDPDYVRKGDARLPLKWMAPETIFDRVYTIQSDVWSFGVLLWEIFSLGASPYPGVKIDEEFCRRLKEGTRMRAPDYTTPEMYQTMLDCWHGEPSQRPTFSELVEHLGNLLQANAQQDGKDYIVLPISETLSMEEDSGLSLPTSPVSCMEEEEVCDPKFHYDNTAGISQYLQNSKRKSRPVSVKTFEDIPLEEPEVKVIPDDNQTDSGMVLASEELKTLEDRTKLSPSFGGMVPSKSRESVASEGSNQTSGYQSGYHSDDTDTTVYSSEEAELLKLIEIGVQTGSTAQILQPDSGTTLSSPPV

For the compound `CC(=O)Nc1ccc(NC(=O)c2ccc(C)c(Nc3nccc(-c4cccnc4)n3)c2)cc1` [Example 22, N-[4-(Acetylamino)phenyl]-4-methyl-3-[[4-(3-pyridinyl)-2-pyrimidinyl]amino]benzamide], the figures for the inhibition at 10 µM in assay [1] and in assay [2] were 59% and 7%, respectively.
Regarding `COc1ccc(NC(=O)c2ccc(C)c(Nc3nccc(-c4cccnc4)n3)c2)c(C)c1` [Example 23, N-(4-Methoxy-2-methylphenyl)-4-methyl-3-[[4-(3-pyridinyl)-2-pyrimidinyl]amino]benzamide], the inhibition at 10 µM came to 90% in assay [1] and 67% in assay [2].
As to `Cc1ccc(C(=O)NCc2ccc(S(C)(=O)=O)cc2)cc1Nc1nccc(-c2cccnc2)n1` [Example 24, 4-Methyl-N-[4-(methylsulfonyl)benzyl]-3-[[4-(3-pyridinyl)-2-pyrimidinyl]amino]benzamide], the inhibition at 10 µM in assay [1] is 80%; in assay [2], 70%.
`Cc1ccc(C(=O)NCc2ccc(N(C)C)cc2)cc1Nc1nccc(-c2cccnc2)n1` [Example 25, N-[[4-(Dimethylamino)phenyl]methyl]-4-methyl-3-[[4-(3-pyridinyl)-2-pyrimidinyl]amino]benzamide]: the inhibition at 10 µM in assay [1] came to 44%; in assay [2], 73%.
Consider `Cc1ccc(C(=O)NCC(N)=O)cc1Nc1nccc(-c2cccnc2)n1` [Example 26, N-(2-Amino-2-oxoethyl)-4-methyl-3-[[4-(3-pyridinyl)-2-pyrimidinyl]amino]benzamide], for which the figures for the inhibition at 10 µM in assay [1] and in assay [2] were 55% and 56%, respectively.
Turning to `COC(=O)CNC(=O)c1ccc(C)c(Nc2nccc(-c3cccnc3)n2)c1` [Example 27, N-[4-Methyl-3-[[4-(3-pyridinyl)-2-pyrimidinyl]amino]benzoyl]glycine methyl ester], the inhibition at 10 µM in assay [1] worked out at 54%; in assay [2] it was 51%.
For `COC(=O)CCNC(=O)c1ccc(C)c(Nc2nccc(-c3cccnc3)n2)c1` [Example 28, N-[4-Methyl-3-[[4-(3-pyridinyl)-2-pyrimidinyl]amino]benzoyl]beta-alanine methyl ester], the inhibition at 10 µM in assay [1] is 73%; in assay [2], 61%.
For the compound `Cc1ccc(C(=O)NCCCO)cc1Nc1nccc(-c2cccnc2)n1` [Example 30, N-(3-Hydroxypropyl)-4-methyl-3-[[4-(3-pyridinyl)-2-pyrimidinyl]amino]benzamide], the inhibition at 10 µM turned out to be 57% in assay [1] and 37% in assay [2].
On to `CCN(CC)C(=O)c1ccc(C)c(Nc2nccc(-c3cccnc3)n2)c1` [Example 31, N,N-Diethyl-4-methyl-3-[[4-(3-pyridinyl)-2-pyrimidinyl]amino]benzamide], for which the inhibition at 10 µM in assay [1] is 68%; in assay [2], 83%.
With `Cc1ccc(C(=O)N[C@@H](Cc2ccccc2)C(=O)OC(C)(C)C)cc1Nc1nccc(-c2cccnc2)n1` [Example 32, N-[4-Methyl-3-[[4-(3-pyridinyl)-2-pyrimidinyl]amino]benzoyl]-(L)-phenylalanine 1,1-dimethylethyl ester], the figures for the inhibition at 10 µM in assay [1] and in assay [2] were 90% and 37%, respectively.
On to `Cc1ccc(C(=O)N[C@H](C)C(=O)OC(C)(C)C)cc1Nc1nccc(-c2cccnc2)n1` [Example 33, N-[4-Methyl-3-[[4-(3-pyridinyl)-2-pyrimidinyl]amino]benzoyl]-(D)-alanine 1,1-dimethylethyl ester], for which the inhibition at 10 µM was 97% in assay [1] and 51% in assay [2].
For `Cc1ccc(C(=O)N2CCC(NC(=O)c3ccccc3)CC2)cc1Nc1nccc(-c2cccnc2)n1` [Example 34, N-[1-[4-Methyl-3-[[4-(3-pyridinyl)-2-pyrimidinyl]amino]benzoyl]-4-piperidinyl]benzamide], the values for the inhibition at 10 µM in assay [1] and in assay [2] were 73% and 89%, respectively.
Consider `Cc1ccc(C(=O)N2CCOCC2)cc1Nc1nccc(-c2cccnc2)n1` [Example 35, 4-[4-Methyl-3-[[4-(3-pyridinyl)-2-pyrimidinyl]amino]benzoyl]-morpholine], for which the inhibition at 10 µM in assay [1] turned out to be 27%; in assay [2] it was 47%.
As for `COc1ccc(N2CCN(C(=O)c3ccc(C)c(Nc4nccc(-c5cccnc5)n4)c3)CC2)cc1` [Example 36, 1-(4-Methoxyphenyl)-4-[4-methyl-3-[[4-(3-pyridinyl)-2-pyrimidinyl]amino]-benzoyl]piperazine], the inhibition at 10 µM was determined as 57% in assay [1] and 77% in assay [2].
On to `Cc1ccc(C(=O)N2CCN(c3ccncc3)CC2)cc1Nc1nccc(-c2cccnc2)n1` [Example 37, 1-[4-Methyl-3-[[4-(3-pyridinyl)-2-pyrimidinyl]amino]benzoyl]-4-(4-pyridinyl)-piperazine], for which the figures for the inhibition at 10 µM in assay [1] and in assay [2] were 28% and 82%, respectively.
Take `Cc1ccc(C(=O)N2CCN(c3cnccn3)CC2)cc1Nc1nccc(-c2cccnc2)n1` [Example 38, 1-[4-Methyl-3-[[4-(3-pyridinyl)-2-pyrimidinyl]amino]benzoyl]-4-(pyrazinyl)-piperazine]: the inhibition at 10 µM in assay [1] turned out to be 74%; in assay [2], 91%.
Take `Cc1ccc(C(=O)N2CCN(Cc3ccccc3)CC2)cc1Nc1nccc(-c2cccnc2)n1` [Example 39, 1-[4-Methyl-3-[[4-(3-pyridinyl)-2-pyrimidinyl]amino]benzoyl]-4-(phenylmethyl)-piperazine]: the inhibition at 10 µM in assay [1] was found to be 64%; in assay [2] it was 74%.
For `Cc1ccc(C(=O)N2CCN(C3CCCC3)CC2)cc1Nc1nccc(-c2cccnc2)n1` [Example 40, 1-Cyclopentyl-4-[4-methyl-3-[[4-(3-pyridinyl)-2-pyrimidinyl]amino]benzoyl]piperazine], the values for the inhibition at 10 µM in assay [1] and in assay [2] were 65% and 78%, respectively.
With `Cc1ccc(C(=O)N2CCN(CC(=O)N3CCOCC3)CC2)cc1Nc1nccc(-c2cccnc2)n1` [Example 41, 4-{{4-[4-Methyl-3-[[4-(3-pyridinyl)-2-pyrimidinyl]amino]benzoyl]-1-piperazinyl}acetyl}morpholine], the inhibition at 10 µM in assay [1] was 13%; in assay [2] it was 52%.
Turning to `Cc1ccc(C(=O)N2CCN(CC(=O)N3CCCC3)CC2)cc1Nc1nccc(-c2cccnc2)n1` [Example 42, 1-[4-Methyl-3-[[4-(3-pyridinyl)-2-pyrimidinyl]amino]benzoyl]-4-[2-oxo-2-(1-pyrrolidinyl)ethyl]piperazine], the inhibition at 10 µM was 32% in assay [1] and 56% in assay [2].
As to `CCOC(=O)N1CCN(C(=O)c2ccc(C)c(Nc3nccc(-c4cccnc4)n3)c2)CC1` [Example 43, 4-[4-Methyl-3-[[4-(3-pyridinyl)-2-pyrimidinyl]amino]benzoyl]-1-piperazinecarboxylic acid ethyl ester], the inhibition at 10 µM is 37% in assay [1] and 63% in assay [2].
Taken in the same sequence, the figures for `Cc1ccc(C(=O)N2CCc3ccccc3C2)cc1Nc1nccc(-c2cccnc2)n1` [Example 44, 2-[4-Methyl-3-[[4-(3-pyridinyl)-2-pyrimidinyl]amino]benzoyl]-1,2,3,4-tetrahydro-isoquinoline] were 75% and 97%.
